Assays:
Lck = biological target: T1, Lck (Mus musculus, UniProt P06240); experiment: Continuous spectrophotometric kinase activity assay; type: biochemical, murine
T1 construct: murine Lck (residues 227-509); made in house

Src Thr338Ile = experiment: Inhibition of Src gatekeeper mutant; type: biochemical, chicken
Source text: Kinase domain constructs of human c-Abl (residues 229-512), chicken c-Src (residues 251-533 and residues 83-533), murine Lck (residues 227-509), and human Hck (residues 166-445) were expressed as previously described (Seeliger, Young et al. 2005; Seeliger, Nagar et al. 2007; the entire contents of each of which are incorporated by reference herein). Mutations were introduced into chicken c-Src (residues 251-533) (T338I, C277Q, L297M) by site-directed mutagenesis and verified by DNA sequencing.
For the FRET-based endpoint assay, kinase assays were performed using Invitrogen's Z′-LYTE kinase assay using the Tyr 02 substrate peptide (based upon the optimal Abl substrate peptide […]) according to the manufacturer's instructions. Assays were performed at near KM ATP concentrations for full-length c-Src and full-length c-Src T338I-50 μM and 7 μM, respectively.

VEGFR2 (KDR) = VEGFR2 (KDR) (Homo sapiens, UniProt P35968); experiment: Z'-LYTE kinase assay (Invitrogen SelectScreen); type: biochemical; settings: KDR (VEGFR2); 5 μM
Sequence of VEGFR2 (KDR) (P35968 20-1356): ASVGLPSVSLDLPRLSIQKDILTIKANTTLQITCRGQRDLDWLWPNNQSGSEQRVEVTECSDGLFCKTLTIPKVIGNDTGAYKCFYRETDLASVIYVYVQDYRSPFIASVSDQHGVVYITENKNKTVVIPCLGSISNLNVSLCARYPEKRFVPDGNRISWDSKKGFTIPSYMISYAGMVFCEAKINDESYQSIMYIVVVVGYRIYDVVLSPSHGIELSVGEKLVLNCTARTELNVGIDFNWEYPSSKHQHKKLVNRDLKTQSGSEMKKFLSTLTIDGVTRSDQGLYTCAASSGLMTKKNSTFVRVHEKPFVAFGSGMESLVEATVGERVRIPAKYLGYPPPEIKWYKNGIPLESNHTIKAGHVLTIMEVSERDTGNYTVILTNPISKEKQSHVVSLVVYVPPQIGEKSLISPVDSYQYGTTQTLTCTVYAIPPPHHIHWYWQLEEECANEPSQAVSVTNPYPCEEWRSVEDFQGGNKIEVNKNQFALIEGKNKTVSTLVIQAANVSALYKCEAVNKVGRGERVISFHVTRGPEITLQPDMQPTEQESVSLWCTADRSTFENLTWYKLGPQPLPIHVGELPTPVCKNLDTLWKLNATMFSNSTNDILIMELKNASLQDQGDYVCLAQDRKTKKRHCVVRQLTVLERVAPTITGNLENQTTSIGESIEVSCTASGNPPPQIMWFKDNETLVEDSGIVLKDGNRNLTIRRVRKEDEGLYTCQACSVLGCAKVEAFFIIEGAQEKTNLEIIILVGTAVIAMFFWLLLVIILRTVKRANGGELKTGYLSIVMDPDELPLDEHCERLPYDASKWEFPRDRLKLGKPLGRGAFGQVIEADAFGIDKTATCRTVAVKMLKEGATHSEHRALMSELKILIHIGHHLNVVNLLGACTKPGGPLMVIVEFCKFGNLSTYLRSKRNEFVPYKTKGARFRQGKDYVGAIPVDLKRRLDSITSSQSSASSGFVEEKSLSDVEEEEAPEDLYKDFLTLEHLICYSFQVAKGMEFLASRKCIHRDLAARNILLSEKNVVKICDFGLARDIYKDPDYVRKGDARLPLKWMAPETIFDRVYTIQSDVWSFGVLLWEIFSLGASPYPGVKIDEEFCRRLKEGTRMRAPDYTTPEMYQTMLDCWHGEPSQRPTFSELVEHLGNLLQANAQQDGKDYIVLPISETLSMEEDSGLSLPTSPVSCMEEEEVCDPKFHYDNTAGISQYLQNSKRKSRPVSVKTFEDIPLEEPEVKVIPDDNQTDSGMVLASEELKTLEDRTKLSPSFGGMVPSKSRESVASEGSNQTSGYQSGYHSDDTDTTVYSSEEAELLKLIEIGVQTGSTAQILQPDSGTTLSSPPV
Source text: (§1) Macrocycles A10-B1-C11-D5 and A10-B8-C11-D5 were enriched 2- to 6-fold upon selection for binding Akt3, MAPKAPK2, Pim1, and VEGFR2 (FIG. 6). These two macrocycles are structurally similar, sharing nitrophenylalanine (A10) and cyclohexylstatine (C11) building blocks as well as the same lysine scaffold (D5), and differ only at the B building block with either furylalanine (B1) or cyclohexylalanine (B8) (FIG. 6). For assay purposes, the macrocycles were synthesized with C-terminal PEG-diamine linkers to aid solubility, and then tested for the ability to inhibit Akt3, MAPKAPK2, Pim1 and VEGFR2.
(§2) Src IC50 determinations and single-point inhibition measurements were performed using Invitrogen's Z′-LYTE Tyr 02 assay kit according to the manufacturer's protocols. All kinase assays were performed at ATP concentrations near KM,ATP values, except where noted otherwise. Active human Src kinase was obtained from Millipore. For kinome profiling and IC50 determinations against non-Src kinases, compounds were submitted to Invitrogen's SelectScreen Kinase Profiling Service.

MAPKAPK2 (MK2) = MAPKAPK2 (MK2) (Homo sapiens, UniProt P49137); experiment: Z'-LYTE kinase assay (Invitrogen SelectScreen); type: biochemical; settings: MAPKAPK2; 5 μM
Sequence of MAPKAPK2 (MK2) (P49137 whole entry): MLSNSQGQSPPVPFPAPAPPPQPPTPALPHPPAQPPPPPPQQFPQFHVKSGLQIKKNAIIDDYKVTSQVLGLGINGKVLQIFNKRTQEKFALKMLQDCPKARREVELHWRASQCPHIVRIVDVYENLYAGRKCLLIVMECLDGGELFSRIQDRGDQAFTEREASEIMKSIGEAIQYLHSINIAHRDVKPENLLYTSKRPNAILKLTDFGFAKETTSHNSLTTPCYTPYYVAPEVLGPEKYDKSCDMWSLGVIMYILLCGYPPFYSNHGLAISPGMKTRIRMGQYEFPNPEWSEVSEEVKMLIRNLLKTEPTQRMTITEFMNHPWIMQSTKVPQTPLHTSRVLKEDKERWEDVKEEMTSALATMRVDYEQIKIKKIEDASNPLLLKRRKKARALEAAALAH
Source text: as §1, §2

Akt3 = Akt3 (Homo sapiens, UniProt Q9Y243); experiment: Z'-LYTE kinase assay (Invitrogen SelectScreen); type: biochemical; settings: AKT3 (PKB gamma); 5 μM
Sequence of Akt3 (Q9Y243 whole entry): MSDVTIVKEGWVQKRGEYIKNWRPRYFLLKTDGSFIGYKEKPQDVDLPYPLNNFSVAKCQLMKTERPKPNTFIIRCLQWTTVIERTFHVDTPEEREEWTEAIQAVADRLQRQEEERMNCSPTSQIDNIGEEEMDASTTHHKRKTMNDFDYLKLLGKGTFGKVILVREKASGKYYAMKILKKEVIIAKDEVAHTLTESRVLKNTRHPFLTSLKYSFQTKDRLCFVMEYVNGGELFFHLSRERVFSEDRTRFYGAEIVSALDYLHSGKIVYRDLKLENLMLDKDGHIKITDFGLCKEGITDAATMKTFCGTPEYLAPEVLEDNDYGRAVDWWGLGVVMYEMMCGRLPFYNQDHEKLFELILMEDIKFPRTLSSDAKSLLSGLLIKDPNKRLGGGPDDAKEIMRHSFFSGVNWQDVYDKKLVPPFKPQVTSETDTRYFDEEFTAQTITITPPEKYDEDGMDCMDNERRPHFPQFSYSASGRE
Source text: as §1, §2

Pim1 = Pim1 (Homo sapiens, UniProt P11309); experiment: Z'-LYTE kinase assay (Invitrogen SelectScreen); type: biochemical; settings: PIM1; 5 μM
Sequence of Pim1 (P11309 whole entry): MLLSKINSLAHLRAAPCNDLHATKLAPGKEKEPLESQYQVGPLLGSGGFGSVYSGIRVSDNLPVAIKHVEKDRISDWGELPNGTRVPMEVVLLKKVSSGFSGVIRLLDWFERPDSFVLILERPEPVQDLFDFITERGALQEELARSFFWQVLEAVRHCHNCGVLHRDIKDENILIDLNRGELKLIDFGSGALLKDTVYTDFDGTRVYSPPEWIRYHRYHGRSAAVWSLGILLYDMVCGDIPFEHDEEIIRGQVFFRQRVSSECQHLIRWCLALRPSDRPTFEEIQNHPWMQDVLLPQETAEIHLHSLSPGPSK
Source text: as §1, §2

T1 sequence (P06240 227-509): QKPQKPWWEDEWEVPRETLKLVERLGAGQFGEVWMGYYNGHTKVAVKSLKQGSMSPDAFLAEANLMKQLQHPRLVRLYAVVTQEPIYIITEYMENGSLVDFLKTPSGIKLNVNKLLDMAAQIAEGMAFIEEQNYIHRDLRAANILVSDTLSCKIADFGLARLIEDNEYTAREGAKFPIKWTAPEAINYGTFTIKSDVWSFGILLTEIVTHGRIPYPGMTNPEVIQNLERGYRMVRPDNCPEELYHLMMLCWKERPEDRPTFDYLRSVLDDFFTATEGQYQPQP

Structure (SMILES): NC(=O)[C@@H]1CCCNC(=O)[C@H](Cc2ccc([N+](=O)[O-])cc2)NC(=O)[C@H](Cc2ccco2)NC(=O)[C@H](CC2CC2)NC(=O)/C=C/C(=O)N1 [trans-A10-B1-C5-D6]
- IC50 (Lck; 5 μM ATP, 100 μM Src optimal peptide): > 100 µM
- IC50 (Lck; 5 μM ATP, 300 μM Src optimal peptide): > 100 µM
- IC50 (Lck; 250 μM ATP, 300 μM Src optimal peptide): > 100 µM
- inhibition of Src Thr338Ile gatekeeper mutant (in words) (Src Thr338Ile): retained their inhibition potency
- % inhibition (VEGFR2 (KDR)): 7%
- % inhibition (MAPKAPK2 (MK2)): −3%
- % inhibition (Akt3): 11%
- % inhibition (Pim1): −3%

From US8975232B2, “Macrocyclic kinase inhibitors and uses thereof” (President and Fellows of Harvard College, priority 2010, dated 2015)
